# Data published in patent US20230277491A1, “PHARMACEUTICAL COMBINATION COMPRISING GLYCOLIC ACID AND L-ALANINE” (priority 2020, published 2023).
# Key:
# [1] = system: HeLa cells; experiment: Intracellular calcium, Fluo4-AM loaded HeLa cells, fluorescent plate reader; type: cell-based; conditions: FIG. 12
# Description: HeLa cells were loaded with Fluo4-AM and fluorescence was monitored with the help of a fluorescent plate reader. Values are normalized to the initial fluorescent value.
# [2] = system: HeLa cells treated with siRNA against PARK-7/DJ-1; experiment: Calcium imaging on HeLa cells during mitosis after PARK-7/DJ-1 down-regulation; type: cell-based; conditions: PARK-7/DJ-1 down-regulated HeLa cells, 5 mM, FIG. 17
# Protocol: HeLa cells were loaded with Fluo-4 AM, a dye used to measure calcium concentration in living cells, as described by the manufacturer and recorded for 4 hours. Graphics show the variations in intracellular calcium concentration during mitosis in WT and cells treated with siRNA against PARK-7/DJ-1 to down-regulate this gene.
# HeLa-Kyoto cells stably expressing histone H2B-mCherry and mouse DJ-1 were used. Cells were maintained in DMEM supplemented with 10% fetal bovine serum (FBS), 2 mM GlutaMAX, 100 unit/ml penicillin, 100 μg/ml streptomycin. For esiRNA treatment, cells were plated at a density of 15.000 cells/well in an ibidi 8 well chamber (Cat. no 80826, ibidi, Germany, EU), transfected with different esiRNAs (RLUC as empty vector, hPARK-7 and hKIF11 as positive control) (all esiRNAs were obtained from Eupheria, Germany, EU), and left for 72 hours before performing calcium imaging. esiRNA transfection was performed as follows. esiRNA was diluted in distilled water to a concentration of 20 ng/μl. For each well, two solutions were made: 1. […]
# We observed that the Fluo-4 AM dye started to leak out of the cells into the medium after 1.5 hours of imaging. […] Images were analyzed using FIJI Image Analysis Freeware (https://fiji.sc). MFI of the Fluo-4 AM signal within the cell was determined using manually selected ROIs covering the whole cell area for each time-point. […]
# [3] = system: djr1.1/djr1.2 and glod-4 KO C. elegans; experiment: Embryonic lethality in C. elegans (percentage of hatched eggs); type: in vivo; conditions: worms fed with substance, FIG. 18
# Protocol: All C. elegans strains were maintained on NGM agar plates seeded with Escherichia coli NA22 at 15° C.
# [4] = system: DJ-1 RNAi depleted HeLa cells; conditions: cited from earlier work
# [5] = system: dopaminergic neurons; conditions: cited from earlier work
# [6] = system: dopaminergic neurons; experiment: Survival of dopaminergic neurons with paraquat 25 μM challenge (Example 1, FIG. 1); type: cell-based, mouse
# Protocol: (§1) Dopaminergic neurons were isolated and plated at a concentration of 1.000.000 cells/ml (100 μl/well) in a 96 well plate and cultured in medium with one or more of the various factors indicated, as described in the examples below. The survival of dopaminergic neurons in the presence and absence of various agents of the invention, either with or without paraquat challenge, is shown by the number of TH positive neurons normalized to the control treatment.
# Dopaminergic neurons were isolated and plated at a concentration of 1.000.000 cells/ml (100 μl/well) in a 96 well plate. After 3-4 hours incubation at 37° C., 20 μl of medium was removed from each well. (VF=80 μl). Changes in medium and start point of the treatment were done in the following day in vitro (DIV). The following protocol was employed in order to assess the survival of dopaminergic neurons in the presence and absence of various agents of the invention combination, either with or without paraquat challenge. • DIV.1: Change half of medium N2 (40 μl) with fresh medium N2. • DIV.3: Change half of the medium and start with medium (control) or with medium A containing LA (different concentrations) and/or GA (normally 5 mM or 10 mM). Medium A is N2 medium but without FBS and N2-Supplement. • DIV.5: Second round of control or treatment with LA and/or GA. Half of the medium (40 μl) was replaced by fresh medium A with the different agents. • DIV.7: Paraquat 25 μM treatment starts with or without GA and L-alanine. Half of the medium (40 μl) was replaced by fresh medium A with the different treatment combinations or without (control). • DIV.9: Second day of treatment with Paraquat (PQ) 25 μM in addition to the other substances (LA and GA). • DIV.10: Fixation 2% of PFA during 20 min at 37° C. or overnight at 4° C.
# Primary mesencephalic neuronal cell cultures were prepared as previously described. Briefly, E14.5 embryos were obtained from C57JBL6 pregnant mice after cervical dislocation. Brain mesencephali were dissected under the microscope and digested with Trypsin-EDTA 0.12% (Life Technologies, USA) for 7 min. The trypsin reaction was then stopped by adding basic medium (BM), containing Neurobasal A medium (Gibco, USA), 1 mg/mL Pen/Strep, 10% FCS, and […] L-Glutamine, and cells were mechanically dissociated using a fire-polished Pasteur pipette. Medium was fully replaced after 5 min, centrifugation at 1200 rpm, aspiring the supernatant and adding 8 mL of fresh BM to the pellet. Concentration of cells in the medium was estimated using a Neubauer chamber and a 100 μL of medium containing 10^6 cells/mL plated per well in a 96-well plate (Greiner Sensoplate, Germany, EU). Then a 20 μL of medium was removed from the well and 24 h later, ⅓ of the media was replaced with fresh BM. […]
# [7] = human, in vivo
# Description: Potential side effects were closely monitored.
# [8] = 5 g tablet or powder by mouth; cited from earlier work
# [9] = system: dopaminergic neurons; experiment: Survival of dopaminergic neurons with paraquat 12.5 μM challenge (Example 5, FIGS. 19, 20); type: cell-based, mouse
# Protocol: as §1
# Dopaminergic neurons were isolated and plated at a concentration of 1.000.000 cells/ml (100 μl/well) in a 96 well plate. After 3-4 hours incubation at 37° C., 20 μl of medium was removed from each well. (VF=80 μl). Changes in medium and start point of the treatment were on the following day in vitro (DIV). The following protocol was employed to assess the survival of dopaminergic neurons in the presence and absence of various agents of the inventive combination, either with or without paraquat challenge. • DIV.1: Change half of medium N2 (40 μl) with fresh medium N2. • DIV.3: Change half of the medium and start with medium (control) or with medium A containing PB (0.15 mM) and TUDCA (0.5 mM), or with Medium A containing GA (normally 1 mM, 3 mM, or 10 mM) or with Medium A containing GA (1 mM or 3 mM) and PB (0.15 mM) or with Medium A containing GA (5 mM) and TUDCA (0.5 mM) or with Medium A containing PB (0.15 mM). Medium A is N2 medium but without FBS and N2-Supplement. • DIV.5: Second round of control or treatment with different treatments. Half of the medium (40 μl) was replaced by fresh medium A with the different agents. • DIV.7: Paraquat 12.5 μM treatment starts alone or in combination with the treatments explained above. Half of the medium (40 μl) was replaced by fresh medium A with the different treatment combinations or without (control). • DIV.9: Second day of treatment with Paraquat (PQ) 12.5 μM in addition to the other treatments as explained above. • DIV.11: Fixation 2% of PFA during 20 min at 37° C. or overnight at 4° C.
# The effect of the different treatments on dopaminergic neurons survival upon exposure to paraquat was assessed through of TH+ neurons after treatment. Briefly, neurons were fixed using 2% paraformaldehyde for immunocytochemical analysis after treatment. Dopaminergic TH^+ neurons per well were identified and counted using an inverted fluorescence microscope (Olympus) under a 20× objective.
# [10] = estimated; cited from earlier work
compound,measurement,setting,value
"C[C@@H](O)C(=O)O [DL, D-(−)-lactic acid]",intracellular calcium (Fluo4-AM fluorescence normalized to initial value),[1],reduce intracellular calcium
same,calcium influx during mitosis,[2],able to rescue this phenotype
same,embryonic lethality (percentage of hatched eggs),[3],rescue of embryonic lethality
same,mitochondrial potential,[4],maintain or rescue mitochondrial potential
same,survival of dopaminergic neurons,[5],rescued the survival of dopaminergic neurons
"C[C@H](N)C(=O)O [LA, L-Alanine]",survival of dopaminergic neurons (rescue),[6]; 0.01 mM LA alone with PQ 25 μM,no rescue
same,"prevention of kidney damage or stones, renal or liver disfunction",[7],sufficient to prevent any kidney damage or stones
same,side effects / function of the kidney or liver,[7],avoid any unwanted side effects or reductions in function of the kidney or liver
sodium phenylbutyrate,time to metabolism into phenylacetate,[8],within half an hour
same,time to peak concentration in the bloodstream,[8],within an hour
same,time until detected in the blood,[8],≤ 15 min
"C[n+]1ccc(-c2cc[n+](C)cc2)cc1 [PQ, Paraquat, reference compound]",survival of dopaminergic neurons (number of TH positive neurons normalized to the control treatment),[6]; PQ 25 μM alone,severe reduction in neuron survival
same,number of TH positive neurons normalized to the control treatment,"[9]; PQ 12.5 μM alone, FIG. 19",0.58
same,number of TH positive neurons normalized to the control treatment,"[9]; PQ 12.5 μM alone, FIG. 20",0.44
"O=C(O)CCCc1ccccc1 [PB, 4-Phenylbutyric acid, reference compound]",number of TH positive neurons normalized to the control treatment,"[9]; PQ 12.5 μM + 0.15 mM PB, FIG. 19",0.72
OCCOCCO [diethylene glycol],minimum toxic dose,[10],0.14 mg glycolic acid per kg of body weight
